{
  "source": "patent US20230365546A1",
  "about": "“5-SUBSTITUTED INDOLE 3-AMIDE DERIVATIVES, PREPARATION METHOD AND USE THEREOF” (ORIGIANT PHARMACEUTICAL CO., LTD, priority 2020, published 2023)",
  "assay_in_all_cases": "Kinase Profiler 10 μM panel",
  "key": {"ACK1(h)": {"target": "ACK1(h) (Homo sapiens (Human), UniProt Q07912)", "method": "(§1) In vitro kinase assays were conducted using Kinase Profiler services provided by Eurofins. The experimental method was as follows: the small molecule compound to be tested (0.001-10 μM), the protein kinase to be tested were incubated with a buffer containing substrate, 10 mM magnesium acetate, and [γ-^33P-ATP], the reaction was started by adding Mg\\TPmix, after incubation for a period of time at room temperature, a 3% phosphate solution was added to the buffer to stop the reaction. Subsequently, 10 μL of the reaction mixture was quantitatively pipetted onto P30 filter paper, which was washed three times with 75 mM phosphate solution and then once with methanol. The P30 filter paper was air-dried and scintillation fluid was added for scintillation counting."}, "GRK6(h)": {"target": "GRK6(h) (Homo sapiens (Human), UniProt P43250)", "method": "as §1"}, "Pim-1(h)": {"target": "Pim-1(h) (Homo sapiens (Human), UniProt P11309)", "method": "as §1"}, "HIPK1(h)": {"target": "HIPK1(h) (Homo sapiens (Human), UniProt Q86Z02)", "method": "as §1"}, "Aurora-A(h)": {"target": "Aurora-A(h) (Homo sapiens (Human), UniProt O14965)", "sequence (O14965 whole entry)": "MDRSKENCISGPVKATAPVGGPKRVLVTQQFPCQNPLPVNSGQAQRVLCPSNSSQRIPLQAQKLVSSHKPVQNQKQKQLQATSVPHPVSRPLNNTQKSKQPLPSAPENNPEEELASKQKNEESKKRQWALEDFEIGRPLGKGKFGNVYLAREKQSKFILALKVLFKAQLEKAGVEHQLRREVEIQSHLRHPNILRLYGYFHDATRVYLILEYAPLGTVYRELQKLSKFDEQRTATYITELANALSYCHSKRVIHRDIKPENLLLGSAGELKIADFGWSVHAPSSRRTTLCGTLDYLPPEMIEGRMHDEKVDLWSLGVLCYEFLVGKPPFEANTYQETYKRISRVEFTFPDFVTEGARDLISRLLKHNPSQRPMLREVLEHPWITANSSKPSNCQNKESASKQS", "method": "as §1"}, "PKBα(h)": {"target": "PKBα(h) (Homo sapiens (Human), UniProt P31749)", "method": "as §1"}, "BMPR2(h)": {"target": "BMPR2(h) (Homo sapiens (Human), UniProt Q13873)", "method": "as §1"}, "IKKß(h)": {"target": "IKKß(h) (Homo sapiens (Human), UniProt O14920)", "method": "as §1"}, "PKCμ(h)": {"target": "PKCμ(h) (Homo sapiens (Human), UniProt Q15139)", "method": "as §1"}, "BTK(R28H)(h)": {"target": "BTK(R28H)(h) (Homo sapiens (Human), UniProt Q06187, R28H)", "method": "as §1"}, "CaMKIV(h)": {"target": "CaMKIV(h) (Homo sapiens (Human), UniProt Q16566)", "method": "as §1"}, "PrKX(h)": {"target": "PrKX(h) (Homo sapiens (Human), UniProt P51817)", "method": "as §1"}, "LIMK2(h)": {"target": "LIMK2(h) (Homo sapiens (Human), UniProt P53671)", "method": "as §1"}, "LRRK2(h)": {"target": "LRRK2(h) (Homo sapiens (Human), UniProt Q5S007)", "sequence (Q5S007 whole entry)": "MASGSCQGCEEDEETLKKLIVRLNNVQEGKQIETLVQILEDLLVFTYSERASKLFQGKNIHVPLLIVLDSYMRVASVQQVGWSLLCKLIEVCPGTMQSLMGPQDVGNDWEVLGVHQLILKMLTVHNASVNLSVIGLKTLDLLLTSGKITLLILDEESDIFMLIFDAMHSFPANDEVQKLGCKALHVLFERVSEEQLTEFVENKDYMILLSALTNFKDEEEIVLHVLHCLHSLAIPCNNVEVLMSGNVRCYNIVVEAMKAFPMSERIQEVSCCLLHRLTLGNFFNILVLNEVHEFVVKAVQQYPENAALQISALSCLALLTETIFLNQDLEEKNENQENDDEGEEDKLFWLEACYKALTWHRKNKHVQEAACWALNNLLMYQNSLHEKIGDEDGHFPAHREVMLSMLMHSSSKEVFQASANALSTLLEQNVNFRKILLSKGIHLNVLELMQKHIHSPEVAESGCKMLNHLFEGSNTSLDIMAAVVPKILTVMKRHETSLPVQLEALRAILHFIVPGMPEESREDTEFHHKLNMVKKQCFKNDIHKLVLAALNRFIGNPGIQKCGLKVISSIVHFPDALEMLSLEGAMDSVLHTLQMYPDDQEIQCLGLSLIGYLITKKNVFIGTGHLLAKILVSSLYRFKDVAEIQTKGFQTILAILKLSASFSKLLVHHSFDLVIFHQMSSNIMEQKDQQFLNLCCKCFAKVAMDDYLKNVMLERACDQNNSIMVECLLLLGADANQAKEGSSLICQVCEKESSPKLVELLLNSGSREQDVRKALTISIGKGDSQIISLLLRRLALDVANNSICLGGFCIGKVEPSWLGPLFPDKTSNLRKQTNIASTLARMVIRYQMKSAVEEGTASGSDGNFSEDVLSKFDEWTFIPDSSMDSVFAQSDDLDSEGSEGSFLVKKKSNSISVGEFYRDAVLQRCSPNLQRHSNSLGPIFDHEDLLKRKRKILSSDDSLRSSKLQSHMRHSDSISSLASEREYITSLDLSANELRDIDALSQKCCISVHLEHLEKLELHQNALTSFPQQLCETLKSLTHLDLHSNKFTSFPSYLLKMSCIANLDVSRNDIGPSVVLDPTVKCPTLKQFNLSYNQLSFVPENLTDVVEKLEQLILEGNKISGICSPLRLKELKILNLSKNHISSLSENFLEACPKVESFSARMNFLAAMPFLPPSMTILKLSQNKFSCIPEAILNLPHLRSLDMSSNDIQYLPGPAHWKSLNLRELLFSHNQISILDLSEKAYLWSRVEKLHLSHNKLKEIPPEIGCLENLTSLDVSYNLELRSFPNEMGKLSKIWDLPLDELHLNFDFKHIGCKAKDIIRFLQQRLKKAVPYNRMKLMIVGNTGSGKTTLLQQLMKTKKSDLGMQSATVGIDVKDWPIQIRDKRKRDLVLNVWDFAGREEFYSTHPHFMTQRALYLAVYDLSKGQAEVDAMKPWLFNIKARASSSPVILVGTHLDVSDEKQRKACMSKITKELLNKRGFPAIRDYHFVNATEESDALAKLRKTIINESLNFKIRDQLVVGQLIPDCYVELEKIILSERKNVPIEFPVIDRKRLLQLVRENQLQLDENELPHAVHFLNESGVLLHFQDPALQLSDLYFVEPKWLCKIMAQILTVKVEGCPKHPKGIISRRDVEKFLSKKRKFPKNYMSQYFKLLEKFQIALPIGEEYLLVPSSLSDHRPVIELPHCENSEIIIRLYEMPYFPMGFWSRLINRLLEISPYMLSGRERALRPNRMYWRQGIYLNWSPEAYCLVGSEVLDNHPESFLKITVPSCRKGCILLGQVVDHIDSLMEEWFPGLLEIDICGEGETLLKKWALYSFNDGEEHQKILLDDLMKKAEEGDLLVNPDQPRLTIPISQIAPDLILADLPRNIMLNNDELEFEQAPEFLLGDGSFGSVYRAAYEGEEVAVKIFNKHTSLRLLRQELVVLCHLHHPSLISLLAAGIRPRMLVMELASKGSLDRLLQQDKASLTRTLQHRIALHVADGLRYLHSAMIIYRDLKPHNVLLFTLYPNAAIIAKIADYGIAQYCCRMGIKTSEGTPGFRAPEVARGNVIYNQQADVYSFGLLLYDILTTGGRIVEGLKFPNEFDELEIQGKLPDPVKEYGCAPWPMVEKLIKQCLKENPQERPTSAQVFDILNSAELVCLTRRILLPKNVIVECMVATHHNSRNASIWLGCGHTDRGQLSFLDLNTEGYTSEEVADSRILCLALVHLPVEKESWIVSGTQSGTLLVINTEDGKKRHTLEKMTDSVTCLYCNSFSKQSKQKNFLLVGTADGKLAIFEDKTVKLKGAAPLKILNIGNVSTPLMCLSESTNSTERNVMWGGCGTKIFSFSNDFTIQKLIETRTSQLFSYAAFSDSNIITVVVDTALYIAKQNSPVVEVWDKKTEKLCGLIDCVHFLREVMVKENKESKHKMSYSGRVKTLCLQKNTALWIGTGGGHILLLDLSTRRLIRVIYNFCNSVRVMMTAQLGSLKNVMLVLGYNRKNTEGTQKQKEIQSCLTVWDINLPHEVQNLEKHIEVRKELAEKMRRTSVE", "method": "as §1"}, "ChaK1(h)": {"system": "ChaK1(h)", "method": "as §1"}, "MEKK2(h)": {"target": "MEKK2(h) (Homo sapiens (Human), UniProt Q9Y2U5)", "method": "as §1"}, "CHK2(R145W)(h)": {"target": "CHK2(R145W)(h) (Homo sapiens (Human), UniProt O96017, R145W)", "method": "as §1"}, "CK1(y)": {"system": "CK1(y)", "method": "as §1"}, "SGK(h)": {"target": "SGK(h) (Homo sapiens (Human), UniProt O00141)", "sequence (O00141 whole entry)": "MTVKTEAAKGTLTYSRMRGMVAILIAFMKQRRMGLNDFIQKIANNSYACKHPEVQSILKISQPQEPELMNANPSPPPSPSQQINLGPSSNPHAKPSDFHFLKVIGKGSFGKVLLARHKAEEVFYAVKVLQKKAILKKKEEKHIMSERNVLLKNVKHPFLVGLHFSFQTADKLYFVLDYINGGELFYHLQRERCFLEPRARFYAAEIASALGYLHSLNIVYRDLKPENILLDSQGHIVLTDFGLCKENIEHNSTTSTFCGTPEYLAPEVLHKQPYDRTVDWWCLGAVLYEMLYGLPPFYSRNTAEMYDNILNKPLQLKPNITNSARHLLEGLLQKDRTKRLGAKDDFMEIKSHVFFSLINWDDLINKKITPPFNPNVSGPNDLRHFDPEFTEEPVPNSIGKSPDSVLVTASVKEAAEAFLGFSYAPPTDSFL", "method": "as §1"}, "cKit(D816H)(h)": {"target": "cKit(D816H)(h) (Homo sapiens (Human), UniProt P10721, D816H)", "method": "as §1"}, "SRMS(h)": {"target": "SRMS(h) (Homo sapiens (Human), UniProt Q9H3Y6)", "method": "as §1"}, "CLK1(h)": {"target": "CLK1(h) (Homo sapiens (Human), UniProt P49759)", "sequence (P49759 whole entry)": "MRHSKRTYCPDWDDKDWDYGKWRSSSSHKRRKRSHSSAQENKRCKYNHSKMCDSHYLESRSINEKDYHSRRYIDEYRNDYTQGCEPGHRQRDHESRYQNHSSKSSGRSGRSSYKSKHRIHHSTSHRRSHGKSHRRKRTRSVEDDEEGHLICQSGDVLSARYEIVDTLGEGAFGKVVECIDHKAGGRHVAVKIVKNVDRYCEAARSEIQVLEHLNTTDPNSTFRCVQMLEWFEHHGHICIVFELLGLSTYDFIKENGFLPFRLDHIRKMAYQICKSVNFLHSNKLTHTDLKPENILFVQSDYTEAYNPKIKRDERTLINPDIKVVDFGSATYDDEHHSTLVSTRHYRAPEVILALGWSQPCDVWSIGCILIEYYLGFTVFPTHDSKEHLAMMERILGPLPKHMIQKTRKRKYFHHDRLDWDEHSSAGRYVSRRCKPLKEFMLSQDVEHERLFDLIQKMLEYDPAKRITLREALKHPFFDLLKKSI", "method": "as §1"}, "TBK1(h)": {"target": "TBK1(h) (Homo sapiens (Human), UniProt Q9UHD2)"}, "TLK2(h)": {"target": "TLK2(h) (Homo sapiens (Human), UniProt Q86UE8)", "method": "as §1"}, "TSSK2(h)": {"target": "TSSK2(h) (Homo sapiens (Human), UniProt Q96PF2)", "sequence (Q96PF2 whole entry)": "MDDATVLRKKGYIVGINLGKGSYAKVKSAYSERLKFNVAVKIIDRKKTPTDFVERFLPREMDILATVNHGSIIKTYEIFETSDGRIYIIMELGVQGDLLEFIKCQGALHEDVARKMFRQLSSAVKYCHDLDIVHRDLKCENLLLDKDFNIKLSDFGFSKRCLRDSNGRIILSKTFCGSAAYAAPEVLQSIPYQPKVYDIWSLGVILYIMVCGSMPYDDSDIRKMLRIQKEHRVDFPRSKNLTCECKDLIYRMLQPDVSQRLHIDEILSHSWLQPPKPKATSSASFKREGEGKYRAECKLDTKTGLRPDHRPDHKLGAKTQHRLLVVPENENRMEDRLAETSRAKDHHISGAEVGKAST", "method": "as §1"}, "TTK(h)": {"target": "TTK(h) (Homo sapiens (Human), UniProt P33981)", "method": "as §1"}, "Txk(h)": {"target": "Txk(h) (Homo sapiens (Human), UniProt P42681)", "method": "as §1"}, "TYK2(h)": {"target": "TYK2(h) (Homo sapiens (Human), UniProt P29597)", "method": "as §1"}, "EphB1(h)": {"target": "EphB1(h) (Homo sapiens (Human), UniProt P54762)", "method": "as §1"}, "ErbB2(h)": {"target": "ErbB2(h) (Homo sapiens (Human), UniProt P04626)", "method": "as §1"}, "Wee1B(h)": {"target": "Wee1B(h) (Homo sapiens (Human), UniProt P0C1S8)", "method": "as §1"}, "FAK(h)": {"target": "FAK(h) (Homo sapiens (Human), UniProt Q05397)", "method": "as §1"}, "Fer(h)": {"target": "Fer(h) (Homo sapiens (Human), UniProt P16591)", "method": "as §1"}, "FGFR2(N549H)(h)": {"target": "FGFR2(N549H)(h) (Homo sapiens (Human), UniProt P21802, N549H)", "sequence (P21802 22-821 N549H)": "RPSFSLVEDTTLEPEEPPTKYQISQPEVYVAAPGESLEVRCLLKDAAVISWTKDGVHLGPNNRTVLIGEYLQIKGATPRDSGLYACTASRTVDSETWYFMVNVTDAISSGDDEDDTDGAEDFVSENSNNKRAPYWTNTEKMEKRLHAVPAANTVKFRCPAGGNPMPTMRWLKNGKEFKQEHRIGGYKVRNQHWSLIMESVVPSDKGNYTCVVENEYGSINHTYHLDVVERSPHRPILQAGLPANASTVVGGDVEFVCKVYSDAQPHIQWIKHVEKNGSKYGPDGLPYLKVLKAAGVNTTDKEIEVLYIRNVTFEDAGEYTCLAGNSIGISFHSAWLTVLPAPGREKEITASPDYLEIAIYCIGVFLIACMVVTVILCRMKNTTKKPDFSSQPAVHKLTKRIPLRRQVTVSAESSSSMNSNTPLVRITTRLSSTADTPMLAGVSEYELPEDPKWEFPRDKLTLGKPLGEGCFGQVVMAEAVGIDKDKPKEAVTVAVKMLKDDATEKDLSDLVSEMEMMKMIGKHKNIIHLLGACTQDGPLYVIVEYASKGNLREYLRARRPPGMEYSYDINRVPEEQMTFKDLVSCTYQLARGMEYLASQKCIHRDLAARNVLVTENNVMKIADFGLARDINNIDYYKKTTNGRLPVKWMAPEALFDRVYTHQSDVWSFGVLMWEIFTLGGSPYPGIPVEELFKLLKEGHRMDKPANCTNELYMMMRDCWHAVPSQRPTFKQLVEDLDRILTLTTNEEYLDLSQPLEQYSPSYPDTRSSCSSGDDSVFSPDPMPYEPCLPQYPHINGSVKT", "method": "as §1"}},
  "data": [
    {"smiles": "C[C@H](NC(=O)c1cn(C)c2ccc(-c3ccn4nc(NC(=O)C5CC5)nc4c3)cc12)c1cccc(F)c1", "note": "[Compound 94, (S)-5-(2-(cyclopropanecarboxamido)-[1,2,4]triazolo[1,5-a]pyridin-7-yl)-N-(1-(3-fluorophenyl)ethyl)-1-methyl-1H-indole-3-carboxamide]", "values": [
      {"measurement": "Inhibition ratio/%", "setting": "ACK1(h)", "result": 33, "unit": "%"},
      {"measurement": "Inhibition ratio/%", "setting": "GRK6(h)", "result": 2, "unit": "%"},
      {"measurement": "Inhibition ratio/%", "setting": "Pim-1(h)", "result": 9, "unit": "%"},
      {"measurement": "Inhibition ratio/%", "setting": "HIPK1(h)", "result": 48, "unit": "%"},
      {"measurement": "Inhibition ratio/%", "setting": "Aurora-A(h)", "result": "−7", "unit": "%"},
      {"measurement": "Inhibition ratio/%", "setting": "PKBα(h)", "result": "−11", "unit": "%"},
      {"measurement": "Inhibition ratio/%", "setting": "BMPR2(h)", "result": "−6", "unit": "%"},
      {"measurement": "Inhibition ratio/%", "setting": "IKKß(h); IKKβ(h)", "result": "−3", "unit": "%"},
      {"measurement": "Inhibition ratio/%", "setting": "PKCμ(h)", "result": 50, "unit": "%"},
      {"measurement": "Inhibition ratio/%", "setting": "BTK(R28H)(h)", "result": 77, "unit": "%"},
      {"measurement": "Inhibition ratio/%", "setting": "CaMKIV(h)", "result": 21, "unit": "%"},
      {"measurement": "Inhibition ratio/%", "setting": "PrKX(h)", "result": "−10", "unit": "%"},
      {"measurement": "Inhibition ratio/%", "setting": "LIMK2(h)", "result": 19, "unit": "%"},
      {"measurement": "Inhibition ratio/%", "setting": "LRRK2(h)", "result": 10, "unit": "%"},
      {"measurement": "Inhibition ratio/%", "setting": "ChaK1(h)", "result": 66, "unit": "%"},
      {"measurement": "Inhibition ratio/%", "setting": "MEKK2(h)", "result": "−10", "unit": "%"},
      {"measurement": "Inhibition ratio/%", "setting": "CHK2(R145W)(h)", "result": 69, "unit": "%"},
      {"measurement": "Inhibition ratio/%", "setting": "CK1(y)", "result": 30, "unit": "%"},
      {"measurement": "Inhibition ratio/%", "setting": "SGK(h)", "result": 51, "unit": "%"},
      {"measurement": "Inhibition ratio/%", "setting": "cKit(D816H)(h)", "result": 42, "unit": "%"},
      {"measurement": "Inhibition ratio/%", "setting": "SRMS(h)", "result": 43, "unit": "%"},
      {"measurement": "Inhibition ratio/%", "setting": "CLK1(h)", "result": 80, "unit": "%"},
      {"measurement": "Inhibition ratio/%", "setting": "TBK1(h)", "result": 13, "unit": "%"},
      {"measurement": "Inhibition ratio/%", "setting": "TLK2(h)", "result": 25, "unit": "%"},
      {"measurement": "Inhibition ratio/%", "setting": "TSSK2(h)", "result": 52, "unit": "%"},
      {"measurement": "Inhibition ratio/%", "setting": "TTK(h)", "result": 13, "unit": "%"},
      {"measurement": "Inhibition ratio/%", "setting": "Txk(h)", "result": "−12", "unit": "%"},
      {"measurement": "Inhibition ratio/%", "setting": "TYK2(h)", "result": 50, "unit": "%"},
      {"measurement": "Inhibition ratio/%", "setting": "EphB1(h)", "result": 1, "unit": "%"},
      {"measurement": "Inhibition ratio/%", "setting": "ErbB2(h)", "result": 47, "unit": "%"},
      {"measurement": "Inhibition ratio/%", "setting": "Wee1B(h)", "result": "−2", "unit": "%"},
      {"measurement": "Inhibition ratio/%", "setting": "FAK(h)", "result": "−3", "unit": "%"},
      {"measurement": "Inhibition ratio/%", "setting": "Fer(h)", "result": 10, "unit": "%"},
      {"measurement": "Inhibition ratio/%", "setting": "FGFR2(N549H)(h)", "result": 12, "unit": "%"}
    ]},
    {"smiles": "C[C@H](NC(=O)c1c[nH]c2ccc(-c3ccc4nc(NC(=O)C5CC5)sc4c3)cc12)c1cccc(F)c1", "note": "[Compound 34, (S)-5-(2-(cyclopropanecarboxamido)benzo[d]thiazol-6-yl)-N-(1-(3-fluorophenyl)ethyl)-1H-indole-3-carboxamide]", "values": [
      {"measurement": "Inhibition ratio", "setting": "ACK1(h)", "result": 35, "unit": "%"},
      {"measurement": "Inhibition ratio", "setting": "GRK6(h)", "result": 0, "unit": "%"},
      {"measurement": "Inhibition ratio", "setting": "Pim-1(h)", "result": 3, "unit": "%"},
      {"measurement": "Inhibition ratio", "setting": "HIPK1(h)", "result": 68, "unit": "%"},
      {"measurement": "Inhibition ratio", "setting": "Aurora-A(h)", "result": 37, "unit": "%"},
      {"measurement": "Inhibition ratio", "setting": "PKBα(h)", "result": 11, "unit": "%"},
      {"measurement": "Inhibition ratio", "setting": "BMPR2(h)", "result": 30, "unit": "%"},
      {"measurement": "Inhibition ratio", "setting": "IKKß(h); IKKß(h)", "result": 12, "unit": "%"},
      {"measurement": "Inhibition ratio", "setting": "PKCμ(h)", "result": 6, "unit": "%"},
      {"measurement": "Inhibition ratio", "setting": "BTK(R28H)(h)", "result": 1, "unit": "%"},
      {"measurement": "Inhibition ratio", "setting": "CaMKIV(h)", "result": 20, "unit": "%"},
      {"measurement": "Inhibition ratio", "setting": "PrKX(h)", "result": 6, "unit": "%"},
      {"measurement": "Inhibition ratio", "setting": "LIMK2(h)", "result": 44, "unit": "%"},
      {"measurement": "Inhibition ratio", "setting": "LRRK2(h)", "result": 30, "unit": "%"},
      {"measurement": "Inhibition ratio", "setting": "ChaK1(h)", "result": 5, "unit": "%"},
      {"measurement": "Inhibition ratio", "setting": "MEKK2(h)", "result": 3, "unit": "%"},
      {"measurement": "Inhibition ratio", "setting": "CHK2(R145W)(h)", "result": 37, "unit": "%"},
      {"measurement": "Inhibition ratio", "setting": "CK1(y)", "result": 25, "unit": "%"},
      {"measurement": "Inhibition ratio", "setting": "SGK(h)", "result": 2, "unit": "%"},
      {"measurement": "Inhibition ratio", "setting": "cKit(D816H)(h)", "result": 44, "unit": "%"},
      {"measurement": "Inhibition ratio", "setting": "SRMS(h)", "result": 12, "unit": "%"},
      {"measurement": "Inhibition ratio", "setting": "CLK1(h)", "result": 80, "unit": "%"},
      {"measurement": "Inhibition ratio", "setting": "TBK1(h)", "result": 53, "unit": "%"},
      {"measurement": "Inhibition ratio", "setting": "TLK2(h)", "result": 5, "unit": "%"},
      {"measurement": "Inhibition ratio", "setting": "TSSK2(h)", "result": "−6", "unit": "%"},
      {"measurement": "Inhibition ratio", "setting": "TTK(h)", "result": 55, "unit": "%"},
      {"measurement": "Inhibition ratio", "setting": "Txk(h)", "result": 47, "unit": "%"},
      {"measurement": "Inhibition ratio", "setting": "TYK2(h)", "result": 12, "unit": "%"},
      {"measurement": "Inhibition ratio", "setting": "EphB1(h)", "result": 45, "unit": "%"},
      {"measurement": "Inhibition ratio", "setting": "ErbB2(h)", "result": 10, "unit": "%"},
      {"measurement": "Inhibition ratio", "setting": "Wee1B(h)", "result": "−2", "unit": "%"},
      {"measurement": "Inhibition ratio", "setting": "FAK(h)", "result": 33, "unit": "%"},
      {"measurement": "Inhibition ratio", "setting": "Fer(h)", "result": 62, "unit": "%"},
      {"measurement": "Inhibition ratio", "setting": "FGFR2(N549H)(h)", "result": 86, "unit": "%"}
    ]}
  ]
}
